Experimental data published in US20200368247A1, “CENICRIVIROC FOR THE TREATMENT OF FIBROSIS” (Tobira Therapeutics, Inc., priority 2014, published 2020).

Tests used:
[1] = Study 202 biomarkers of inflammation; format: in vivo, human
Description: As an exploratory analysis, levels of inflammation biomarkers MCP-1, sCD14, high sensitivity C-reactive protein [hs-CRP], interleukin-6 [IL-6], D-dimer, and fibrinogen) were measured. Baseline values and changes from baseline at Week 24 and Week 48 of MCP-1, sCD14, hs-CRP, IL-6, D-dimer, and fibrinogen are summarized in Table 25.
The sCD14 samples were originally analyzed in 2 separate batches: Batch 1 included samples leading up to the Week 24 primary analysis and Batch 2 included Week 32 and Week 48 (end of study) samples. A repeat analysis of archived samples all analyzed in one batch was conducted for consistency in analysis across time points. To control for the effects of covariates, a linear mixed-model repeated-measures analysis was conducted on the changes from baseline in sCD14 (analysis dated September 2013).

HIV-1 = assay: Study 202 Phase 2b, virologic response (HIV-1 RNA <50 copies/mL, FDA Snapshot), with FTC/TDF
From the text: Subjects with a history of HIV-2, hepatitis B and/or C, cirrhosis of the liver or any known active or chronic active liver disease were excluded from the study.
The primary efficacy endpoint was virologic response at Week 24, defined as HIV-1 RNA <50 copies/mL using the FDA Snapshot Algorithm.

[2] = Study 202 treatment-emergent laboratory abnormalities (DAIDS grade); format: in vivo, human
From the text: The 12th subject (Subject 42001) had 2 consecutive CPK elevations (Grade 3 followed by Grade 4) that returned to normal values while continuing treatment at a subsequent visit. None of the CPK elevations were associated with clinical symptoms; no subjects discontinued due to CPK elevations and there were no differences in AEs related to musculoskeletal disorders between the CVC and EFV arms.
The number of subjects with graded treatment-emergent laboratory abnormalities in selected liver parameters of interest is shown in Table 34. No Grade 4 ALT or AST elevations were observed. Except for one Grade 3 AST elevation, all ALT and AST elevations were Grade 1 or Grade 2. […] All abnormalities in bilirubin were Grade 1 or Grade 2. […]

[3] = All CVC (N = 115), EFV (N = 28)
[4] = All CVC (N = 115), EFV (N = 28), through Week 48
[5] = CVC 100 mg (N = 38), through Week 48

CCCCOCCOc1ccc(-c2ccc3c(c2)/C=C(/C(=O)Nc2ccc([S@@+]([O-])Cc4cncn4CCC)cc2)CCCN3CC(C)C)cc1 [CVC, (S)-8-[4-(2-Butoxyethoxy)phenyl]-1-isobutyl-N-(4-{[(1-propyl-1H-imidazol-5-yl)methyl]sulfinyl}phenyl)-1,2,3,4-tetrahydro-1-benzazocine-5-carboxamide]
sCD14 Baseline value, Mean ([1]; CVC 100 mg): 1.8e+06 pg/mL
sCD14 change from baseline at Week 12, Mean ([1]; CVC 100 mg): -140000 pg/mL
sCD14 change from baseline at Week 12, Median ([1]; CVC 100 mg): -160000 pg/mL
sCD14 change from baseline at Week 24, Mean ([1]; CVC 100 mg): -190000 pg/mL
sCD14 change from baseline at Week 24, Median ([1]; CVC 100 mg): -180000 pg/mL
sCD14 change from baseline at Week 32, Mean ([1]; CVC 100 mg): 110000 pg/mL
sCD14 change from baseline at Week 32, Median ([1]; CVC 100 mg): 120000 pg/mL
sCD14 change from baseline at Week 48, Mean ([1]; CVC 100 mg): 100000 pg/mL
sCD14 change from baseline at Week 48, Median ([1]; CVC 100 mg): 100000 pg/mL
sCD14 change from baseline at Week 12, Mean ([1]; CVC 200 mg): -230000 pg/mL
sCD14 change from baseline at Week 12, Median ([1]; CVC 200 mg): -210000 pg/mL
sCD14 change from baseline at Week 24, Mean ([1]; CVC 200 mg): -230000 pg/mL
sCD14 change from baseline at Week 24, Median ([1]; CVC 200 mg): -190000 pg/mL
sCD14 change from baseline at Week 32, Mean ([1]; CVC 200 mg): -20000 pg/mL
sCD14 change from baseline at Week 32, Median ([1]; CVC 200 mg): -20000 pg/mL
sCD14 change from baseline at Week 48, Mean ([1]; CVC 200 mg): -40000 pg/mL
sCD14 change from baseline at Week 48, Median ([1]; CVC 200 mg): -40000 pg/mL
plasma MCP-1 over time ([1]; Study 202, up to Week 48): increases over time
subjects who prematurely discontinued the study (HIV-1; CVC 100 mg arm): 29%
subjects with virologic success (HIV-1 RNA <50 copies/mL) (HIV-1; CVC 100 mg, Week 24): 76%
subjects with virologic success (HIV-1 RNA <50 copies/mL) (HIV-1; CVC 100 mg, Week 48): 68%
subjects who prematurely discontinued the study (HIV-1; CVC 200 mg arm): 27%
subjects with virologic success (HIV-1 RNA <50 copies/mL) (HIV-1; CVC 200 mg, Week 24): 73%
subjects with virologic success (HIV-1 RNA <50 copies/mL) (HIV-1; CVC 200 mg, Week 48): 64%
Any graded (Grade 1-4) laboratory abnormality, % ([2]; All CVC): 92%
Worst Grade 1 laboratory abnormality, % ([2]; All CVC): 32%
Worst Grade 2 laboratory abnormality, % ([2]; All CVC): 43%
Worst Grade 3 laboratory abnormality, % ([2]; All CVC): 11%
Worst Grade 4 laboratory abnormality, % ([2]; All CVC): 5%
ALT abnormality, worst Grade 1 [2, 3]: 10 (9%) n (%)
ALT abnormality, worst Grade 2 [2, 3]: 5 (4%) n (%)
ALT abnormality, worst Grade 3 [2, 3]: 0 n (%)
ALT abnormality, worst Grade 4 [2, 3]: 0 n (%)
AST abnormality, worst Grade 1 [2, 3]: 14 (12%) n (%)
AST abnormality, worst Grade 2 [2, 3]: 6 (5%) n (%)
AST abnormality, worst Grade 3 [2, 3]: 1 (< %) n (%)
AST abnormality, worst Grade 4 [2, 3]: 0 n (%)
Alanine aminotransferase (ALT) abnormality, any worst grade [2, 3]: 15 (13%) n (%)
Aspartate aminotransferase (AST) abnormality, any worst grade [2, 3]: 21 (18%) n (%)
Bilirubin abnormality, any worst grade [2, 3]: 7 (6%) n (%)
Bilirubin abnormality, worst Grade 1 [2, 3]: 3 (3%) n (%)
Bilirubin abnormality, worst Grade 2 [2, 3]: 4 (3%) n (%)
Bilirubin abnormality, worst Grade 3 [2, 3]: 0 n (%)
Bilirubin abnormality, worst Grade 4 [2, 3]: 0 n (%)
AST increased, Grade 3 [2, 4]: 1 (<1%) n (%)
AST increased, Grade 4 [2, 4]: 0 n (%)
Any Grade 3 laboratory abnormality [2, 4]: 13 (11%) n (%)
Any Grade 3 or Grade 4 laboratory abnormality [2, 4]: 19 (17%) n (%)
Any Grade 4 laboratory abnormality [2, 4]: 6 (5%) n (%)
Aspartate aminotransferase (AST) increased (Grade 3 or 4) [2, 4]: 1 (<1%) n (%)
CPK increased, Grade 3 [2, 4]: 8 (7%) n (%)
CPK increased, Grade 4 [2, 4]: 4 (3%) n (%)
Creatine phosphokinase (CPK) increased (Grade 3 or 4) [2, 4]: 12 (10%) n (%)
Fibrinogen decreased (Grade 3 or 4) [2, 4]: 2 (2%) n (%)
Fibrinogen decreased, Grade 3 [2, 4]: 2 (2%) n (%)
Fibrinogen decreased, Grade 4 [2, 4]: 0 n (%)
Hemoglobin decreased (Grade 3 or 4) [2, 4]: 1 (<1%) n (%)
Hemoglobin decreased, Grade 3 [2, 4]: 0 n (%)
Hemoglobin decreased, Grade 4 [2, 4]: 1 (<1%) n (%)
Neutrophils decreased (Grade 3 or 4) [2, 4]: 2 (2%) n (%)
Neutrophils decreased, Grade 3 [2, 4]: 2 (2%) n (%)
Neutrophils decreased, Grade 4 [2, 4]: 0 n (%)
Phosphate decreased (Grade 3 or 4) [2, 4]: 4 (3%) n (%)
Phosphate decreased, Grade 3 [2, 4]: 4 (3%) n (%)
Phosphate decreased, Grade 4 [2, 4]: 0 n (%)
Any graded (Grade 1-4) laboratory abnormality, % ([2]; CVC 100 mg): 88%
Worst Grade 1 laboratory abnormality, % ([2]; CVC 100 mg): 36%
Worst Grade 2 laboratory abnormality, % ([2]; CVC 100 mg): 40%
Worst Grade 3 laboratory abnormality, % ([2]; CVC 100 mg): 7%
Worst Grade 4 laboratory abnormality, % ([2]; CVC 100 mg): 5%
AST increased, Grade 4 [2, 5]: 0 n (%)
Any Grade 3 or Grade 4 laboratory abnormality [2, 5]: 7 (12%) n (%)
Any Grade 4 laboratory abnormality [2, 5]: 3 (5%) n (%)
Aspartate aminotransferase (AST) increased (Grade 3 or 4) [2, 5]: 1 (2%) n (%)
CPK increased, Grade 4 [2, 5]: 1 (2%) n (%)
Creatine phosphokinase (CPK) increased (Grade 3 or 4) [2, 5]: 3 (5%) n (%)
Fibrinogen decreased (Grade 3 or 4) [2, 5]: 0 n (%)
Fibrinogen decreased, Grade 3 [2, 5]: 0 n (%)
Fibrinogen decreased, Grade 4 [2, 5]: 0 n (%)
Hemoglobin decreased (Grade 3 or 4) [2, 5]: 1 (2%) n (%)
Hemoglobin decreased, Grade 3 [2, 5]: 0 n (%)
Hemoglobin decreased, Grade 4 [2, 5]: 1 (2%) n (%)
Neutrophils decreased (Grade 3 or 4) [2, 5]: 2 (3%) n (%)
Neutrophils decreased, Grade 3 [2, 5]: 2 (3%) n (%)
Neutrophils decreased, Grade 4 [2, 5]: 0 n (%)
Phosphate decreased (Grade 3 or 4) [2, 5]: 2 (3%) n (%)
Phosphate decreased, Grade 3 [2, 5]: 2 (3%) n (%)
Phosphate decreased, Grade 4 [2, 5]: 0 n (%)
ALT abnormality, worst Grade 1 ([2]; CVC 100 mg (N = 58)): 4 (7%) n (%)
ALT abnormality, worst Grade 2 ([2]; CVC 100 mg (N = 58)): 3 (5%) n (%)
ALT abnormality, worst Grade 3 ([2]; CVC 100 mg (N = 58)): 0 n (%)
ALT abnormality, worst Grade 4 ([2]; CVC 100 mg (N = 58)): 0 n (%)
AST abnormality, worst Grade 1 ([2]; CVC 100 mg (N = 58)): 8 (14%) n (%)
AST abnormality, worst Grade 2 ([2]; CVC 100 mg (N = 58)): 2 (3%) n (%)
AST abnormality, worst Grade 3 ([2]; CVC 100 mg (N = 58)): 1 (2%) n (%)
AST abnormality, worst Grade 4 ([2]; CVC 100 mg (N = 58)): 0 n (%)
